Test results published in patent US20200296971A1, “COMPOSITIONS AND METHODS FOR DISPERSING BIOFILMS” (Texas State University, priority 2016, published 2020).
Where two headings read alike, the source gives them in different places.

What was measured:
other organisms = conditions: FIG. 3
P. aeruginosa biofilms [1] = conditions: FIG. 4, line B
Description: To further study the mechanisms of boric acid-induced dispersion a collaboration with Dr. Karin Sauer, Binghamton University was initiated. […] FIG. 4 depicts a bar graph summarizing the results of experiments directed towards determining the ability of boric acid to disperse P. aeruginosa biofilms. The line designated as B is boric acid, D represents a positive control for dispersion and E a negative control.

[2] = test system: Biofilms from a nearby river; conditions: river biofilm on stone, 5 minutes exposure, tested 0%, 0.25%, 0.5%, 1%, 2%, 3%
Procedure: Biofilms are described on the surface of small (15 mm×15 mm) stone.
Biofilms were exposed to various concentrations of Boric Acid. The concentrations used were 0%, 0.25%, 0.5%, 1%, 2%, 3%.
One stone was used per concentration and was measured and weighed for similarity. Each stone was rinsed with sterile H2O to remove any planktonic (not attached to biofilm) bacteria. Each stone was exposed to a known concentration for a time period of 5 minutes and then removed and placed into a separate vial containing 9 ml of sterile water. The vial with after treatment stone in sterile water was then sonicated for 60 seconds to remove any remaining biofilm to be quantified. Sonication served as a mechanical removal for any remaining biofilm.
Media was then placed in 30 C for 48 hrs and growth was quantified through counting colonies.

P. aeruginosa biofilms [3] = conditions: 24 h at 37 C
Procedure: (§1) In most experiments, cultures were grown in 96-well polystyrene microtiter plates as this allowed different growth media and replicates to be tested using an automated plate reader. Growth of suspended (planktonic) bacteria could be measured by the turbidity in the individual microtiter plate chambers (referred to as wells). […] To test for dispersion, the planktonic populations and growth media were removed and replaced with water containing various concentrations of the test compound. Dispersion was observed by an increase in turbidity (due to release of bacteria from biofilms) over 20 minutes.
Experiments were conducted in order to examine the ability of P. aeruginosa biofilms grown on different growth media to be dispersed by boric acid. Here, bacteria were grown for 24 h at 37 C on an orbital shaking plate in a microtiter plate. The media was removed and the adherent P. aeruginosa biofilms were exposed to boric acid, placed in a plate reader and turbidity measured following agitation.

P. aeruginosa biofilms [4] = test system: P. aeruginosa biofilms
Procedure: P. aeruginosa was grown as planktonic and biofilm populations in different growth media for 48-120 h. Antimicrobial agents were tested in different boric acid concentrations. Boric acid controls lacked the antimicrobial compounds. Initial planktonic growth and dispersion were measured as described previously. After dispersion, the disinfectant and boric acid compounds were removed, replaced with sterile growth medium, and growth monitored by being placed into the plate reader and monitoring an increase of turbidity over an 18-36 h period.
Experiments were conducted in order to determine the ability of boric acid to enhance the antimicrobial action of betadine (poly(vinyl pyrrolidone) iodine). Betadine is commonly used as a disinfectant in clinical environments and the low concentration used (0.02% (w/v)) was chosen based on previous work as it has partial biofilm effectiveness. P. aeruginosa biofilms were grown for 2 and 5 days suspended above a shaking water bath. […] The media used consisted of artificial urine and artificial urine supplemented with 2 mM glucose (reflecting average urine chemistry in normal and diabetic patients). Davis minimal media (MM) and Luria-Bertani broth (LB) were used as representative minimal and rich media. Different biofilm incubation times were used as it is known that biofilm susceptibility to dispersion can increase with biofilm age.
The testing protocol involved the use of a 96-well microtiter plate and a programmable plate reader (Biotek Instruments). The plate reader was programmed for incubation at 37 C and would agitate the plate for 15 seconds prior to taking an absorbance reading of each well. Microtiter wells were partially filled (200 μl) with sterile growth media, then were inoculated with 2 μl of an overnight bacterial culture suspension. For each media and disinfection combination there were a minimum of two replicates as well as uninoculated wells (media without bacteria) to monitor contamination. The microtiter plates were covered with a lid and the sides sealed with Parafilm™ to prevent contamination. Plates were placed on a rack (above the water level) in a water bath, and incubated with shaking (150 rpm) for 2 and 5 days. Testing consisted of removing a plate from the incubator, placing in the plate reader for 30 minutes (allowing for evaporation of humidity) and reading the turbidity (evidence of planktonic growth). Culture media and planktonic cells were removed from the wells and 200-μl dispersant solution containing a mixture of boric acid and 0.02% (w/v) betadine suspended in PBS. Betadine was absent in the control samples. The microtiter plate was placed in the plate reader for 30 minutes (allowing for evaporation of humidity) and turbidity measurements taken (increased turbidity was evidence of biofilm dispersion). To measure biofilm survival, the plates were removed from the plate reader, the dispersant liquid removed, and replaced with sterile LB growth media. The plates were then placed in the plate reader and growth measured (increased turbidity) over a minimum 18 h period.

river water biofilm = conditions: 0.5% boric acid, 60 seconds, FIG. 2B
Procedure: To visualize biofilm dispersion a water sample from the sampling site was collected. A microscope slide was placed in 30 ml of river water to cultivate a biofilm. The biofilm was then viewed under a dark field microscope and a 0.5% concentration of boric acid was applied and left for 60 seconds. FIG. 2A depicts a photograph of a microscope slide of river water with biofilms.

[5] = test system: monoculture biofilm of Chromobacterium violaceum; conditions: 0.5% boric acid, 2 hours, lightly shaken
Procedure: Test of application: A 0.5% boric acid was injected into a bioreactor containing a monoculture biofilm of Chromobacterium violaceum. The bioreactor was left for 2 hours and lightly shaken.

P. aeruginosa PAO-1 = conditions: Luria Broth, R2A broth, Davis minimal media with 0, 0.5, 1.0, 1.5% boric acid, FIG. 3
Procedure: as §1

OB(O)O [boric acid]
concentration at which bacterial growth began to be inhibited (other organisms): ≥ 1.5 % (w/v) | ability to disperse biofilms in flow cell (P. aeruginosa biofilms [1]): verified the ability of boric acid to disperse P. aeruginosa biofilms | concentration producing the highest percent release of biofilm [2]: 0.5 % (w/v) | boric acid concentration at which increased turbidity (evidence of dispersion) was seen (P. aeruginosa biofilms [3]; Davis Minimal Media-grown biofilms): 1.0% | dispersion (increased turbidity) (P. aeruginosa biofilms [3]; LB-grown biofilms): no observable dispersion | boric acid concentration at which increased turbidity (evidence of dispersion) was seen (P. aeruginosa biofilms [3]; R2A-grown biofilms): 0.5% | enhancement of betadine activity against older biofilms (P. aeruginosa biofilms [4]; 5-day old PAO-1 biofilms grown in artificial urine, FIGS. 13 and 14, preliminary): does enhance the activity of betadine | regrowth after treatment (P. aeruginosa biofilms [4]; 2 day old biofilms, artificial urine, boric acid without betadine, FIG. 6): growth did occur | effect of boric acid on betadine action (P. aeruginosa biofilms [4]; artificial urine with glucose, FIG. 7): no effect | boric acid-induced toxicity (P. aeruginosa biofilms [4]; at the concentrations listed, preliminary results): low level of boric acid-induced toxicity | betadine activity against biofilms in the presence of boric acid (P. aeruginosa biofilms [4]; two-day biofilms, Davis Minimal Media and Luria-Bertani broth, FIGS. 9 and 11): enhanced | killing by boric acid treatment alone (P. aeruginosa biofilms [4]; two-day biofilms, Davis Minimal Media and Luria-Bertani broth, FIGS. 10 and 12): did not kill P. aeruginosa | biofilm dispersion seen under dark field microscope (river water biofilm): dispersed | removal of visible biofilm from bioreactor [5]: All visible biofilm was removed | ability to grow in the presence of boric acid (P. aeruginosa PAO-1): grew in the presence of boric acid
